Where “and” joins values, the source holds several entries; their conditions need not be identical. Equal values may be shown once. Read-outs that look alike come from different tables or passages of the source.
How the values were obtained:
[1] = Differential pulse voltammetry in THF vs Ag/AgCl; type: physicochemical; settings: DPV peak
Procedure: ^1H NMR spectra were recorded on a Mercury 300 spectrometer with chemical shifts referenced to the protonated solvent residue. Mass spectrometry data (electrospray ionization, ESI) were recorded at the Laboratory for Biological Mass Spectrometry at Texas A&M University using an MDS Series Qstar Pulsar with a spray voltage of 5 kV. Elemental analyses were performed by Robertson Microlit Laboratories, Inc., Madison, N.J. on crystalline samples that were previously washed with cold hexanes and dried overnight under vacuum. Infrared spectra were recorded in a Perkin-Elmer 16PC FT IR spectrophotometer using KBr pellets. Electronic spectra were recorded on a Shimadzu UV-2501 PC spectrophotometer. The differential pulse voltammograms were collected using a CH Instruments model-CHI620A electrochemical analyzer in a 0.1 M Bu^n4NPF6 solution in THF, using Pt working and auxiliary electrodes, a Ag/AgCl reference electrode, and a scan rate of 100 mV/s. All potential values are referenced to the Ag/AgCl electrode, and under the present experimental conditions, the E1/2 for the Fc^+/Fc couple consistently occurred at +440 mV.

[2] = Solubility in dry organic solvents; type: physicochemical
[3] = reported value for comparison, cited from earlier work; for reported E1/2 / observed peak position for W2^5+/4+: THF
[4] = Gas-phase photoelectron spectroscopy (PES) of the δ bond ionization; type: physicochemical; settings: for onset ionization energy (IEonset, PESonset): first ionization band; for vertical ionization energy (VIE, PESvertical): position of main Gaussian peak
Procedure: The gas-phase PES of W2(TMhpp)4 and W2(TEhpp)4 were recorded using an instrument that features a 36-cm radius, 8-cm gap hemispherical analyzer, and custom-designed excitation source, sample cells, detection and control electronics, and methods that have been described, for example, in Rev. Sci. Instrum. 1986, 57, 2366 and J. Am. Chem. Soc. 1998, 120, 3382-3386. The temperature was monitored using a “K”-type thermocouple passed through a vacuum feed through and attached directly to the sample cell. Samples of W2(TMhpp)4 and W2(TEhpp)4 were loaded into stainless steel cells and placed in the instrument using rigorous air-sensitive techniques. The data collection focused on determining the δ bond ionization energy. To avoid decomposition in the sample chamber of the cell, ampoules containing the samples were broken off and placed directly in the ionization chamber.
Complete spectra were collected every few minutes.
The ^2P3/2 peak of argon at 15.76 eV ionization energy is typically used for internal energy calibration, but over the course of the experiment sensitivity to the ^2P3/2 peak of Ar was lost. This often happens with molecules that are strong reductants, presumably because of the very large change in work function of the spectrometer when the sample condenses on the spectrometer surfaces. At this point the lamp was adjusted to emit He II photons in addition to He I photons. This allowed observation of the He self-ionization (by He II photons) at an apparent binding energy of 4.99 eV in the He I spectrum. This very sharp line is a convenient internal energy calibrant and is preferable for the calibration of low-energy ionizations. The resolution, as measured by the Ar peak before it was no longer visible, was approximately 0.030 eV. The resolution for the W2(TMhpp)4 and W2(TEhpp)4 experiments, as measured by the He self-ionization, was 71 meV and 88 meV, respectively. Over the course of two separate data collections of W2(TMhpp)4, approximately 800 counts of the full He I spectrum (Graphic S1) and an additional 400 counts of a close-up on the δ bond ionization were collected. For W2(TEhpp)4 approximately 400 counts of the δ bond ionization were collected.
The ionization bands are represented analytically with asymmetric Gaussian peaks. As is typical for the first ionization bands of M2(hpp)4 molecules, a weak shoulder is observed on the high ionization energy side of the peak that necessitates the use of a second asymmetric Gaussian component to reasonably account for the total contour of the ionization intensity. The additional ionization intensity on the high ionization energy side of the first band is ascribed to the different puckered conformations that the hpp ligands can adopt in the molecules. […]

[5] = cited from earlier work
[6] = comparison value; cited from earlier work
[7] = Literature potentials and solvation energy of comparison substances; type: physicochemical; settings: difference versus compounds 3 and 4
[8] = Ionization energies of comparison substances; type: physicochemical; settings: difference versus compounds 3 and 4
[9] = vacuum
[10] = common dry solvents such as THF, toluene, and benzene
[11] = non-halogenated, non-protonated solvents such as THF, toluene, benzene and even hexanes

CCC1(CC)CN2CC(CC)(CC)C[N+]3=C2[N](C1)[W-2]124([Cl])[N]5CC(CC)(CC)CN6CC(CC)(CC)C[N+](=C65)[W-2]31([Cl])([N+]1=C3N(CC(CC)(CC)C[N]32)CC(CC)(CC)C1)[N+]1=C2N(CC(CC)(CC)C[N]24)CC(CC)(CC)C1 [compound 2, W2(TEhpp)4Cl2]
E1/2(1), W2^6+/5+ process [1]: −0.99 V | E1/2(2), W2^5+/4+ process [1]: −1.90 V

C1CN2CCC[N+]3=C2[N](C1)[W-2]124[N]5CCCN6CCC[N+](=C65)[W-2]31([N+]1=C3N(CCC[N]32)CCC1)[N+]1=C2N(CCC[N]24)CCC1 [W2(hpp)4, reference compound]
solubility ([2]; non-reactive organic solvents): poor solubility | reported E1/2 / observed peak position for W2^5+/4+ [3]: −1.81 V | reported E1/2 for W2^6+/5+ [3]: −0.97 V | onset ionization energy (IEonset, PESonset) [4]: 3.51 eV and 3.51±0.05 eV | vertical ionization energy (VIE, PESvertical) [4]: 3.76 eV

[K] [K, potassium]
E1/2, literature ([5]; in THF): −2.66 V

decamethylcobaltocene [(Cp*)2Co]
ionization energy (IE) [6]: 4.705 eV | oxidation potential less negative than that of compounds 3 and 4 [7]: approximately 0.4 V | oxidation potential ([5]; comparison value): −1.47 V | ionization energy greater than that of compounds 3 and 4 [8]: more than 1 eV

CC1(C)CN2CC(C)(C)C[N+]3=C2[N](C1)[W-2]124([Cl])[N]5CC(C)(C)CN6CC(C)(C)C[N+](=C65)[W-2]31([Cl])([N+]1=C3N(CC(C)(C)C[N]32)CC(C)(C)C1)[N+]1=C2N(CC(C)(C)C[N]24)CC(C)(C)C1 [compound 1, W2(TMhpp)4Cl2]
E1/2(1), W2^6+/5+ process [1]: −0.99 V | E1/2(2), W2^5+/4+ process [1]: −1.84 V

[Cs] [cesium]
ionization energy (IE) [6]: 3.89 eV

W2(TMhpp)4 [compound 3]
solubility properties compared to decamethylcobaltocene [2]: compare very favorably | solubility [2, 10]: very soluble | solubility ([2]; hexanes): Some solubility | solubility [2, 11]: very soluble | decomposition during PES measurement ([9]; 216 to 271° C., 2½ h): In neither case was there any evidence of decomposition | decomposition during PES measurement ([9]; 216 to 271° C., 2½ h, listed as W2(TMhpp)4): without evidence of decomposition

W2(TEhpp)4 [compound 4]
solubility properties compared to decamethylcobaltocene [2]: compare very favorably | solubility [2, 10]: very soluble | solubility ([2]; hexanes): significantly more soluble | solubility [2, 11]: very soluble | decomposition during PES measurement ([9]; 317-340° C., about 1 h): In neither case was there any evidence of decomposition | decomposition during PES measurement ([9]; 317-340° C., about 1 h, listed as W2(TEhpp)4): without evidence of decomposition | onset ionization energy (IEonset, PESonset) [4]: 3.40±0.05 eV | vertical ionization energy (VIE, PESvertical) [4]: 3.71±0.03 eV

C1CN=C2[N-]CCCN2C1.C1CN=C2[N-]CCCN2C1.C1CN=C2[N-]CCCN2C1.C1CN=C2[N-]CCCN2C1.FC(F)(F)c1cc([B-](c2cc(C(F)(F)F)cc(C(F)(F)F)c2)(c2cc(C(F)(F)F)cc(C(F)(F)F)c2)c2cc(C(F)(F)F)cc(C(F)(F)F)c2)cc(C(F)(F)F)c1.FC(F)(F)c1cc([B-](c2cc(C(F)(F)F)cc(C(F)(F)F)c2)(c2cc(C(F)(F)F)cc(C(F)(F)F)c2)c2cc(C(F)(F)F)cc(C(F)(F)F)c2)cc(C(F)(F)F)c1.[W+3]#[W+3] [W2(hpp)4^2+ (TFPB^−)2]
reported E1/2 / observed peak position for W2^5+/4+ [3]: −1.81 V

Source: patent US9643988B2, “Compounds having low ionization energy” (THE ARIZONA BOARD OF REGENTS ON BEHALF OF THE UNIVERSITY OF …, priority 2013, dated 2017)
